Laboratory results reported in patent publication EP3906926A1, “PROLINE HYDROXYLASE INHIBITORS FOR USE IN THE SKELETAL MUSCLE REGENERATION” (Policlinico San Donato S.p.A.- Istituto di Ricovero e Cura …, priority 2020, dated 2021).

Key:
Format in all cases: cell-based, murine
PHD2 = assay: qPCR of HIF-1α target gene PHD2; settings: IOX2 or FG-4592 treatment, vs untreated controls
Description: (§1) Total RNA was isolated using ReliaPrep™ RNA Miniprep Systems (Promega), and reverse transcribed to cDNA using the iScript cDNA synthesis kit (BioRad), according to the Manufacturer's instructions. Real-Time Quantitative PCR was performed on 10 ng of cDNA template, 0.2 µM primers, and GoTaq® qPCR Master Mix (Promega) in 20 µl final volume using a StepOnePlus® Real-Time PCR System (Applied Biosystem). […] RPL13 was used as the housekeeping gene. The amplification program consisted in an initial denaturation at 95°C for 3 minutes, followed by 40 cycles of 5 seconds each at 95°C and 30 seconds at 57°C; WNT7a was amplified at 53°C. Relative quantification of target genes was performed in triplicate and calculated by the equation 2^-ΔΔCt.
as §1, with “ReliaPrepTM” for “ReliaPrep™”, “2-ΔΔCt.” for “2^-ΔΔCt.”

MyoD = assay: Western blot of MyoD nuclear localization in WNT7a-KO versus wild type myoblasts; settings: WNT7a-KO vs wild type cells, after 24 h inhibitor pre-treatment
Description: (§2) For nuclei separation, 5 x 10^6 cells were collected after enzymatic digestion with trypsin (Merck), centrifuged at the maximum speed, resuspended in 400 µl of Buffer A (10 mM KCl, 0.1 mM EDTA, 1 mM DTT, 10 mM Hepes, pH 7.9), containing protease and phosphatase inhibitors cocktail (Merck), and incubated on ice for 20 minutes. Then, 10% NP40 was added to the cell suspension, mixed for 40 seconds, and centrifuged 40 seconds at the maximum speed. After centrifugation, the pellet was resuspended in 80 µl of Buffer C (0.4M NaCl, 1 mM EDTA, 1 mM DTT, 20 mM Hepes, pH 7.9), containing a protease and phosphatase inhibitors cocktail, and then mixed for 30 minutes at 4°C at the maximum speed. Finally, the nuclear suspension was centrifuged for 5 minutes at 4°C at the maximum speed, collected and transferred in a new tube. The total protein content was determined with the BCA Protein Assay Kit (Pierce), according to the manufacturer's instructions.
Proteins were denaturated by boiling for 10 minutes in sample buffer (0.6 g/100 mL Tris, 2 g/100 mL SDS, 10% glycerol, 1% 2-mercaptoethanol, pH 6.8) and loaded into 10% SDS-PAGE gel, then transferred onto a nitrocellulose membrane (Trans-blot, Bio-Rad Laboratories) by electroblotting. […]
Therefore, WNT7a silencing was conducted by Crispr/Cas9 genome editing in C2C12 murine myoblasts and the effects on myogenesis were evaluated.

WNT7a promoter = assay: Nano-Glo luciferase reporter assay of pNL1.1-WNT7a promoter activity; settings: 24 hours at IC50 working concentrations
Description: Genomic DNA was extracted from C2C12 murine myoblast and used as the template for WNT7a promoter amplification. The PCR reaction was prepared using a Phusion High-Fidelity kit (New England Biolabs) and employing the following primers: forward 5'-[…]-3' (SEQ ID NO:1), containing KpnI enzymatic site, and reverse 5'-[…]-3' (SEQ ID NO:2) containing the HindIII enzymatic site. The PCR fragment and the vector pNL1.1(Nluc) (Promega) were digested with KnpI and HindIII (Promega) restriction enzymes for 2 hours at 37°C and, then, they were purified from agarose gel using Wizard® SV Gel and PCR Clean-Up System (Promega). The fragment was inserted into the multiple cloning site of pNL1.1 vector using T4 Ligase Fast (Promega) and the reaction was incubated for 1 hour at room temperature. The presence of the insert in the plasmid was finally verified by DNA sequencing.
Briefly, cells were seeded in a 96-well plate at a concentration of 5 x 10^3 cells per well, transfected with the pNL1.1 or pNL1.1WNT7a_promoter (90 ng) plasmids and pGL4.54(luc2/TK) (10 ng) plasmid as internal control, according to ViaFect Transfection Reagent® protocol (Promega), and then incubated for 24 hours. […] To turn off the luminescence of the Firefly luciferase and provide the substrate for the Nanoluc, an equal volume of NanoDLR™ Stop&Glo® Reagent was added to the mixture and incubated for 30 minutes before analysis.

VEGF = assay: qPCR of HIF-1α target gene VEGF; settings: IOX2 or FG-4592 treatment, vs untreated controls
Description: as §1
as §1, with “ReliaPrepTM” for “ReliaPrep™”, “2-ΔΔCt.” for “2^-ΔΔCt.”

HIF-1α = assay: Western blot of HIF-1α nuclear translocation; settings: IOX2 or FG-4592 for 24 hours, vs untreated control; Lamin A/C housekeeper
Description: as §2
Proteins were denaturated by boiling for 10 minutes in sample buffer (0.6 g/100 mL Tris, 2 g/100 mL SDS, 10% glycerol, 1% 2-mercaptoethanol, pH 6.8) and loaded into 10% SDS-PAGE gel, then transferred onto a nitrocellulose membrane (Trans-blot, Bio-Rad Laboratories) by electroblotting. Nitrocellulose membranes were incubated with a blocking solution containing 5% (w/v) non-fat dry milk or 5% (w/v) BSA (Merck) in Tris-buffer saline with 0.1% Tween® 20 (TBS-T) for 1 hour. […] Membranes were washed three times for 10 minutes with TBS-T, and then incubated with the appropriate anti-mouse, anti-rabbit, or anti-goat HRP-conjugated secondary antibodies (Dako, Agilent Technologies), 1:2000 dilution, for 1 hour at room temperature. After three washes for 10 minutes with TBS-T, the immunoreactive bands were visualized using the enhanced chemiluminescence detection kit reagents (ECL Advance, GeHealthcare), according to the manufacturer's instructions.
as §2, with “For total proteins extraction, 7.5 x 10^4 cells were seeded and harvested at 7th days of skeletal muscle differentiation, as previously described. Cells were collected after enzymatic digestion with trypsin (Merck), lysed by sonication and centrifuged at 800 xg for 10 minutes. Supernatant was used to determine total protein content with the BCA Protein Assay Kit (Pierce), according to the manufacturer's instructions. For” for “For”, “(0.4 M” for “(0.4M”

Compound | increase in the expression of PHD2 (PHD2) | decrease of MyoD nuclear localization (MyoD) | WNT7a promoter activation, luminescence increase (WNT7a promoter) | increase in the expression of VEGF (VEGF) | HIF-1α nuclear translocation, protein increase (HIF-1α)
O=C(O)CNC(=O)c1c(O)c2ccccc2n(Cc2ccccc2)c1=O [IOX2] | 4.4 fold | no significant changes | 1.4 fold | 1.6 fold | 8.8 fold
Cc1nc(C(=O)NCC(=O)O)c(O)c2ccc(Oc3ccccc3)cc12 [FG-4592, Roxadustat] | 4.8 fold | 42% | 1.3 fold | 2.1 fold | 15 fold
